From publication PMC3731216, “Origin and Functional Diversification of an Amphibian Defense Peptide Arsenal” (PLoS Genetics, 2013)
In brackets after ≈: the same amount, converted by molar mass. Where a SMILES comes first, the peptide text is derived from it.

Key:
Micrococcus luteus = assay: MIC assay in liquid medium (twofold dilutions) against M. luteus; type: cell-based; settings: lowest concentration in twofold dilutions with no growth; 5×10^5 CFU/ml, Müller-Hinton broth, 37°C, 18 hours, read by eye; duplicate or triplicate, min–max if variable
Method: (§1) Seventeen predicted and recovered peptides were de novo synthesized using solid-phase technology by CASLO Laboratory ApS (Lyngby, Denmark) and delivered as HPLC-purified (>95%) trifluoracetate (TFA) salts. The peptide salts were stored as 5.12 mM stock solutions in 0.01% (V/V) acetic acid/0.2% (m/V) BSA. Peptides were tested against Escherichia coli (ATCC 25922) and Pseudomonas aeruginosa (ATCC 15692), Staphylococcus aureus (ATCC 25923), Micrococcus luteus, Saccharomyces cerevisiae, a protozoan parasite (Trypanosoma brucei brucei), mouse (Mus musculus) red blood cells and mouse spleen tissue cultures (containing 50–60% B-cells, ∼25–30% T-cells, and 5% myeloid cells). All assays were performed in duplicate or triplicate.
(§2) Activity against the bacteria and fungus was measured by assessing the lowest peptide concentration in a series of twofold dilutions at which no growth was detected (known as the minimum inhibitory concentration, MIC). Bacterial and yeast cultures (5×10^5 colony forming units/ml) were prepared in Müller-Hinton (MH) broth and Luria-Bertani (LB) broth respectively and transferred to serial dilutions of peptides ranging from 512 or 256 µM down to 1 or 0.5 µM in 96-well polypropylene plates. After incubation at 37°C (bacteria) or 30°C (S. cerevisiae) for 18 hours, growth of the cultures was checked by eye. In addition to MIC, we determined minimum microbicidal concentrations (MMC) by inoculating samples of the MIC assays on agar plates lacking peptides and checking for overnight growth. In all cases, MIC and MMC were identical.

mouse red blood cells = assay: Hemolysis of mouse red blood cells (HC50); type: cell-based; settings: lowest concentration causing at least 50% hemolysis; mouse blood diluted 1/100 in RPMI, 37°C, 30 minutes, OD 550 nm; 100% = 1% Tween-20
Method: as §1
Activity against mouse red blood cells was examined by assessing the lowest peptide concentration in a series of twofold dilutions causing at least 50% hemolysis (HC50). Briefly, heparinized blood was obtained by cardiac puncture of mice euthanized via CO2. The blood was diluted 1/100 in RPMI and added to polypropylene 96-well plates containing the serial peptide dilutions to obtain total volumes of 100 µl. The plates were incubated at 37°C in a humidified atmosphere for 30 minutes and centrifuged at 1400 rpm for 2 minutes to pellet intact red blood cells allowing visual observation of hemolysis. Supernatants were subsequently transferred to 96-well flat-bottom plates to allow spectrophotometry using an ELISA reader (OD measured at 550 nm). The percentage of hemolyis for each peptide concentration was calculated as 100×(ODobs−OD0%)/(OD100%−OD0%), where ODobs is the OD measured for the peptide concentration, OD0% is the average OD in the absence of peptides (0% hemolysis), and OD100% is the average OD in the presence of 1% Tween-20 (100% hemolysis).

Saccharomyces cerevisiae = assay: MIC assay in liquid medium (twofold dilutions) against S. cerevisiae; type: cell-based; settings: lowest concentration in twofold dilutions with no growth; 5×10^5 CFU/ml, Luria-Bertani broth, 30°C, 18 hours, read by eye; duplicate or triplicate, min–max if variable
Method: as §1, §2

[1] = test system: Staphylococcus aureus (ATCC 25923); assay: MIC assay in liquid medium (twofold dilutions) against S. aureus; type: cell-based; settings: lowest concentration in twofold dilutions with no growth; 5×10^5 CFU/ml, Müller-Hinton broth, 37°C, 18 hours, read by eye; duplicate or triplicate, min–max if variable
Method: as §1, §2

[2] = test system: Pseudomonas aeruginosa (ATCC 15692); assay: MIC assay in liquid medium (twofold dilutions) against P. aeruginosa; type: cell-based; settings: lowest concentration in twofold dilutions with no growth; 5×10^5 CFU/ml, Müller-Hinton broth, 37°C, 18 hours, read by eye; duplicate or triplicate, min–max if variable
Method: as §1, §2

[3] = test system: Escherichia coli (ATCC 25922); assay: MIC assay in liquid medium (twofold dilutions) against E. coli; type: cell-based; settings: lowest concentration in twofold dilutions with no growth; 5×10^5 CFU/ml, Müller-Hinton broth, 37°C, 18 hours, read by eye; duplicate or triplicate, min–max if variable
Method: as §1, §2

[4] = test system: T-lymphocytes (naive C57Black/6 splenocytes); assay: Inhibition of Concanavalin A-induced T-cell proliferation in spleen cell cultures; type: cell-based, Mus musculus; settings: lowest concentration causing at least 50% inhibition of Concanavalin A-induced T-cell proliferation; 2×10^5 splenocytes, 24 h + 18 h [3H]thymidine, 37°C; min–max if variable
Method: as §1
Activity against T-lymphocytes was assessed as the lowest peptide concentration in a series of twofold dilutions causing at least 50% inhibition of Concanavalin A-induced T-cell proliferation (IC50). Solutions containin 2×10^5 naive C57Black/6 splenocytes in the presence of 2.5 µg Concanavalin A were added to polypropylene 96-well plates containing the serial peptide dilutions to obtain total volumes of 100 µl. After incubation for 24 hours at 37°C in a humidified atmosphere, the cells were pulsed with [^3H]thymidine and incubated for an additional 18 hours. The amount of [^3H]thymidine incorporation was assessed by a β-counter as a measure of cell proliferation and the percentage of proliferation inhibition for each peptide concentration was calculated as 100×(1−(Tobs/T100%)), where Tobs is the [^3H]thymidine level measured for the peptide concentration, and T100% is the [^3H]thymidine level measured for Concanavalin-A-induced cell proliferation in the absence of peptide (representing 100% proliferation).

CC[C@H](C)[C@H](NC(=O)[C@H](CC(C)C)NC(=O)[C@H](CCCCN)NC(=O)[C@H](CO)NC(=O)[C@H](C)NC(=O)CNC(=O)[C@H](CCCCN)NC(=O)[C@H](CC(C)C)NC(=O)[C@H](C)NC(=O)[C@H](CCSC)NC(=O)[C@H](CCCCN)NC(=O)[C@H](C)NC(=O)[C@H](Cc1ccccc1)NC(=O)[C@@H](NC(=O)CNC(=O)[C@H](Cc1ccccc1)NC(=O)[C@H](CC(C)C)NC(=O)[C@@H](N)CO)[C@@H](C)O)C(=O)N1CCC[C@H]1C(=O)N[C@@H](Cc1c[nH]cn1)C(=O)N[C@@H](CC(C)C)C(=O)N[C@@H](CC(C)C)C(=O)N1CCC[C@H]1C(=O)N[C@@H](CO)C(=O)N[C@@H](CCCNC(=N)N)C(=O)N[C@@H](CCC(N)=O)C(=O)N[C@@H](CCC(N)=O)C(=O)O [CPF-St4] (H-SLFGTFAKMALKGASKLIPHLLPSRQQ-OH)
MIC M. luteus (Micrococcus luteus): 0,5 µM | HC50 Erythrocytes (mouse red blood cells): 64 µM | MIC S. cerevisiae (Saccharomyces cerevisiae): 16 µM | MIC S. aureus [1]: 1 µM | MIC P. aeruginosa [2]: 4 to 8 µM | MIC E. coli [3]: 2 to 4 µM | IC50 [4]: 2 µM

CC[C@H](C)[C@H](NC(=O)[C@H](CC(C)C)NC(=O)[C@H](CCCCN)NC(=O)[C@H](CO)NC(=O)[C@H](C)NC(=O)CNC(=O)[C@H](CCCCN)NC(=O)[C@H](CC(C)C)NC(=O)[C@H](C)NC(=O)[C@H](C)NC(=O)[C@H](CCCCN)NC(=O)[C@H](C)NC(=O)[C@H](CC(C)C)NC(=O)[C@H](CC(C)C)NC(=O)CNC(=O)[C@H](Cc1ccccc1)NC(=O)[C@@H](NC(=O)CN)C(C)C)C(=O)N1CCC[C@H]1C(=O)N[C@@H](Cc1c[nH]cn1)C(=O)N[C@@H](CC(C)C)C(=O)N[C@@H](CC(C)C)C(=O)N1CCC[C@H]1C(=O)N[C@@H](CO)C(=O)N[C@@H](CCCNC(=N)N)C(=O)N[C@@H](CCC(N)=O)C(=O)N[C@@H](CCC(N)=O)C(=O)O [CPF-St5] (H-GVFGLLAKAALKGASKLIPHLLPSRQQ-OH)
MIC M. luteus (Micrococcus luteus): 0,5 µM | HC50 Erythrocytes (mouse red blood cells): 64 µM | MIC S. cerevisiae (Saccharomyces cerevisiae): 16 µM (≈ 45 µg/mL) | MIC S. aureus [1]: 1 µM (≈ 2.81 µg/mL) | MIC P. aeruginosa [2]: 4 to 8 µM | MIC E. coli [3]: 1 µM (≈ 2.81 µg/mL) | IC50 [4]: 8 µM

CC[C@H](C)[C@H](NC(=O)[C@@H](N)Cc1ccccc1)C(=O)NCC(=O)N[C@@H](C)C(=O)N[C@@H](CC(C)C)C(=O)N[C@@H](CC(C)C)C(=O)N[C@@H](CCCNC(=N)N)C(=O)N1CCC[C@H]1C(=O)N[C@@H](C)C(=O)N[C@@H](CC(C)C)C(=O)N[C@@H](CCCCN)C(=O)N[C@@H](CC(C)C)C(=O)N[C@@H](CC(C)C)C(=O)N[C@@H](C)C(=O)NCC(=O)N[C@@H](CCCCN)C(=O)O [PFQa-St2] (H-FIGALLRPALKLLAGK-OH)
MIC M. luteus (Micrococcus luteus): 4 µM (≈ 6.72 µg/mL) | HC50 Erythrocytes (mouse red blood cells): 256 µM | MIC S. cerevisiae (Saccharomyces cerevisiae): 128 µM (≈ 215 µg/mL) | MIC S. aureus [1]: 16 µM (≈ 26.9 µg/mL) | MIC P. aeruginosa [2]: 256 µM (≈ 430 µg/mL) | MIC E. coli [3]: 32 µM (≈ 53.8 µg/mL) | IC50 [4]: 128 µM

CC[C@H](C)[C@H](NC(=O)[C@H](C)NC(=O)[C@H](CCC(=O)O)NC(=O)[C@H](CC(C)C)NC(=O)CNC(=O)CNC(=O)[C@H](CCCCN)NC(=O)[C@H](C)NC(=O)[C@H](Cc1ccccc1)NC(=O)[C@H](CCCCN)NC(=O)[C@H](CCCCN)NC(=O)[C@H](CC(C)C)NC(=O)CNC(=O)CNC(=O)[C@H](CC(C)C)NC(=O)[C@@H](NC(=O)[C@@H](NC(=O)[C@H](CO)NC(=O)[C@H](Cc1c[nH]c2ccccc12)NC(=O)[C@@H](NC(=O)CN)C(C)C)[C@@H](C)O)C(C)C)C(=O)N[C@H](C(=O)N[C@@H](CC(N)=O)C(=O)N1CCC[C@H]1C(=O)N[C@@H](CCCCN)C(=O)O)C(C)C [XPF-St1] (H-GVWSTVLGGLKKFAKGGLEAIVNPK-OH)
MIC M. luteus (Micrococcus luteus): 0,5 µM | HC50 Erythrocytes (mouse red blood cells): 128 µM | MIC S. cerevisiae (Saccharomyces cerevisiae): 32 µM (≈ 82.2 µg/mL) | MIC S. aureus [1]: 32 to 64 µM | MIC P. aeruginosa [2]: 32 µM (≈ 82.2 µg/mL) | MIC E. coli [3]: 4 µM (≈ 10.3 µg/mL) | IC50 [4]: 16 µM

CC[C@H](C)[C@H](NC(=O)[C@H](CO)NC(=O)[C@H](CO)NC(=O)[C@H](C)NC(=O)[C@H](Cc1c[nH]c2ccccc12)NC(=O)CN)C(=O)NCC(=O)N[C@@H](CO)C(=O)N[C@H](C(=O)N[C@@H](CC(C)C)C(=O)NCC(=O)N[C@@H](CCCCN)C(=O)N[C@@H](Cc1ccccc1)C(=O)N[C@@H](C)C(=O)N[C@@H](CCCCN)C(=O)NCC(=O)NCC(=O)N[C@@H](C)C(=O)N[C@@H](CCC(N)=O)C(=O)N[C@@H](C)C(=O)N[C@@H](Cc1ccccc1)C(=O)N[C@@H](CC(C)C)C(=O)N[C@@H](CCC(N)=O)C(=O)N1CCC[C@H]1C(=O)N[C@@H](CCCCN)C(=O)O)[C@@H](C)CC [XPF-St4] (H-GWASSIGSILGKFAKGGAQAFLQPK-OH)
MIC M. luteus (Micrococcus luteus): 0,5 µM | HC50 Erythrocytes (mouse red blood cells): 256 µM | MIC S. cerevisiae (Saccharomyces cerevisiae): 64 µM (≈ 161 µg/mL) | MIC S. aureus [1]: >256 µM | MIC P. aeruginosa [2]: 128 µM (≈ 323 µg/mL) | MIC E. coli [3]: 32 µM (≈ 80.6 µg/mL) | IC50 [4]: 64 µM

CC[C@H](C)[C@H](NC(=O)[C@@H]1CCCN1C(=O)[C@H](CCC(N)=O)NC(=O)[C@@H](NC(=O)[C@H](CC(C)C)NC(=O)[C@H](CCCCN)NC(=O)[C@@H]1CCCN1C(=O)CNC(=O)[C@H](CC(C)C)NC(=O)[C@H](CCC(N)=O)NC(=O)[C@H](CCSC)NC(=O)[C@H](C)NC(=O)[C@H](CCCCN)NC(=O)[C@H](CCCNC(=N)N)NC(=O)[C@H](CC(C)C)NC(=O)[C@@H](NC(=O)[C@H](CCCCN)NC(=O)CNC(=O)[C@H](Cc1ccccc1)NC(=O)[C@@H](NC(=O)[C@@H]1CCCN1C(=O)[C@H](CC(C)C)NC(=O)[C@H](Cc1c[nH]c2ccccc12)NC(=O)CN)[C@@H](C)O)[C@@H](C)CC)[C@@H](C)CC)C(=O)O [XPF-St5] (H-GWLPTFGKILRKAMQLGPKLIQPI-OH)
MIC M. luteus (Micrococcus luteus): 1 µM (≈ 2.71 µg/mL) | HC50 Erythrocytes (mouse red blood cells): 128 µM | MIC S. cerevisiae (Saccharomyces cerevisiae): 32 µM (≈ 86.6 µg/mL) | MIC S. aureus [1]: 16 µM (≈ 43.3 µg/mL) | MIC P. aeruginosa [2]: 8 to 16 µM | MIC E. coli [3]: 1 to 2 µM | IC50 [4]: 8 to 16 µM

CC[C@H](C)[C@H](NC(=O)[C@H](C)NC(=O)[C@H](CC(=O)O)NC(=O)[C@H](CC(C)C)NC(=O)CNC(=O)CNC(=O)[C@H](CCCCN)NC(=O)[C@H](C)NC(=O)[C@H](Cc1ccccc1)NC(=O)[C@H](CCCCN)NC(=O)[C@H](CCCCN)NC(=O)[C@H](CC(C)C)NC(=O)CNC(=O)CNC(=O)[C@H](CC(C)C)NC(=O)[C@@H](NC(=O)[C@@H](NC(=O)[C@H](CO)NC(=O)[C@H](Cc1c[nH]c2ccccc12)NC(=O)[C@@H](NC(=O)CN)C(C)C)[C@@H](C)O)[C@@H](C)CC)C(=O)N[C@H](C(=O)N[C@@H](CC(N)=O)C(=O)N1CCC[C@H]1C(=O)N[C@@H](CCCCN)C(=O)O)C(C)C [XPF-St6] (H-GVWSTILGGLKKFAKGGLDAIVNPK-OH)
MIC M. luteus (Micrococcus luteus): 0,5 µM | HC50 Erythrocytes (mouse red blood cells): 64 µM | MIC S. cerevisiae (Saccharomyces cerevisiae): 8 µM (≈ 20.6 µg/mL) | MIC S. aureus [1]: 8 to 16 µM | MIC P. aeruginosa [2]: 16 µM (≈ 41.1 µg/mL) | MIC E. coli [3]: 2 to 4 µM | IC50 [4]: 8 µM
